Results from US20230039836A1, “AROMATIC SULPHONAMIDES DERIVATIVES THAT INHIBITS PDI A3, THEIR SYNTHESIS AND USE” (Uniwersytet Jagiellonski, priority 2020, published 2023).
Converted amounts (≈) assume the structure as drawn. Read-outs that look alike come from different tables or passages of the source.

Assays:
HT-29 [1] = assay: Sulforhodamine B antiproliferative assay, 72 h; format: cell-based, human; conditions: normal (21% of oxygen), 72-hour exposition
Description: (§1) Anticancer activity of PDI A1-inhibitors has been also tested in vitro in antiproliferative essay in normoxic and hypoxic conditions as well in estrogen-stimulated cancer cells. In the experiment, cells were seeded on 96-well plates (Sarstedt, Germany) in appropriate culture medium at a density of 10^5 cells/mL 24 h before adding the tested compounds. Cells were treated with each compound in four concentrations in the range 0.1-100 ug/mL. […] After 72 h of compound treatment at 37° C., 5 % CO2 humid atmosphere and in wo different oxygen level conditions: 21% - normal and <1% - hypoxia. In some experiments, the MDA-MB-231 and MCF-7 cells were seeded with or without 200 nM estradiol and after 24 h the tested compounds were added. A previously described sulforhodamine B antiproliferative assay was used with minor modifications (Skehan P et al., 1990). Briefly, cells were fixed with 50 µL/well of 50% (w/v) trichloroacetic acid (Avantor Performance Materials, Gliwice, Poland). After 1 h incubation, plates were washed several times with tap water and 50 µL of 0.4% (w/v) solution of sulforhodamine B (Sigma-Aldrich, Germany) in 1% (v/v) acetic acid (Avantor Performance Materials, Gliwice, Poland) was added to each well. After 30 min incubation at room temperature, unbound dye was washed out with 1% (v/v) acetic acid, whereas bound dye was solubilized with 10 mM unbuffered TRIS (Avantor Performance Materials, Gliwice, Poland) solution. The entire procedure was performed using a BioTek EL-406 washing station (BioTek Instruments, USA). After additional 30 min, absorbance was read using a Biotek Hybrid H4 reader (BioTek Instruments, USA) at 540 nm wavelength. MTT assay was used alternatively for HL-60 cell line and in the experiment in which estrogens are added (specified in the table legend). Absorbance was measured using a Biotek Hybrid H4 reader at 570 nm wavelength for MTT assay.
(§2) Compounds at each concentration were tested in triplicate in a single experiment and each experiment was repeated at least three times independently.
(§3) Results of in vitro antiproliferative effects are shown in Table 3 and Table 4 and are presented as mean IC50 ± SD calculated using the Prolab-3 system based on Cheburator 0.4 software.

MDA-MB-231 [2] = assay: Sulforhodamine B antiproliferative assay, 72 h, normal and hypoxia; format: cell-based, human; conditions: 72-hour exposition
Description: as §1, §2, §3

MCF-7 [3] = assay: as above; format: cell-based, human; conditions: 72-hour exposition
Description: as §1, §2, §3

PDI A1 = molecular target: T1, PDI A1 (Homo sapiens, UniProt P07237); assay: Insulin turbidometric assay, inhibition of PDI A1; format: biochemical; conditions: insulin reduction, turbidity at 650 nm, 60 min incubation at 37° C.; read-out: Inhibition of PDI A1 (EC 50)
T1 construct: purchased Mybiosource; host or cells: E. coli
Description: The inhibitory effects compounds of invention on activity of PDI A1 was assess based on the insulin turbidometric assay. Enzymatic activity of PDIA1 was confirmed by measuring the turbidity increase at 650 nm due to insulin reduction. The assay mixture was prepared by addition 10 ug/ml PDIA1 (E.coli recombinant protein; Mybiosource), 0.1 mM phosphate buffer (pH7.6), 1 mM EDTA, 0.087 mM DTT and with or without tested compound and was incubated for 60 min, at 37° C. Reaction was started by addition insulin and DTT. Final concentration of insulin and DTT in assay mixture was 0.15 mM and 0.174 mM, respectively. Turbidity was detected at 650 nm against reference samples without PDI A1s. The measurements were performed at 650 nm using 120-s recordings.

[4] = test system: MDA-MB-231 (human mammary breast adenocarcinoma); assay: MTT antiproliferative assay, 48 h; format: cell-based; conditions: Homo sapiens, MDA-MB-231, 48-hour exposition, read-out: Cytotoxicity, IC50, µM MDA-MB-231
Description: (§4) About 2000-4000 cells per well (depending on line nature) were placed in 96-well plates and after 24 h compounds were added to the wells. Untreated cells were used as a control. The plates were incubated for 48 h, 37° C., 5% CO2. The number of surviving cells was determined using 3-(4,5-dimethylthiazol-2-yl)-2,5-diphenyltetrazolinium bromide (MTT). MTT-test: after incubating culture medium was removed and 200 µL fresh medium with 20 µL MTT (2 mg/mL in HBSS) was added in each well of the plate. After incubation (3 hr., 37° C., 5% CO2), the medium with MTT was removed and 200 µL DMSO were added at once to each sample. The samples were tested at 540 nm on Thermo Scientific Multiskan EX microplate photometer. The half-maximal inhibitory concentration (IC50) of each compound was calculated using Graph Pad Prism® 3.0.

[5] = test system: Caco-2 (human colon adenocarcinoma); assay: MTT antiproliferative assay, 48 h; format: cell-based; conditions: Homo sapiens, Caco-2, 48-hour exposition, read-out: Cytotoxicity, IC50, µM CaCo-2
Description: as §4

[6] = test system: HT-1080 (human fibrosarcoma); assay: MTT antiproliferative assay, 48 h; format: cell-based; conditions: 48-hour exposition, read-out: Cytotoxicity, IC50, µM HT-1080
Description: as §4

[7] = test system: MCF-7 (human breast adenocarcinoma, estrogen-positive); assay: MTT antiproliferative assay, 48 h; format: cell-based; conditions: Homo sapiens, MCF7, 48-hour exposition, read-out: Cytotoxicity, IC50, µM MCF-7
Description: as §4

HT-29 [8] = assay: MTT antiproliferative assay, 72 h; format: cell-based; conditions: Homo sapiens, 72 hours exposition, read-out: IC50 [µg/ml] HT-29 normal
Description: as §1, §2, §3
(§5) Statistical analysis: Unpaired t test. *p<0.05 as compared to appropriate cells not pretreated with estradiol. MTT assay was used for antiproliferative activity assessment.

HL-60 = assay: MTT antiproliferative assay, 72 h; format: cell-based; conditions: Homo sapiens, 72 hours exposition, read-out: IC50 [µg/ml] HL-60 normal
Description: as §1, §2, §3, §5

MDA-MB-231 [9] = assay: MTT antiproliferative assay, 72 h, with or without estradiol; format: cell-based, human; conditions: for IC50: Homo sapiens, MDA-MB-231, 72 hours exposition, MTT
Description: as §1, §2, §3, §5

MCF-7 [10] = assay: as above; format: cell-based, human; conditions: 72 hours exposition; for IC50: Homo sapiens, MCF7, MTT
Description: as §1, §2, §3, §5

[11] = 200 nM estradiol, read-out: IC50 [µg/ml] MDA-MB-231 + estradiol
[12] = not pretreated with estradiol, read-out: IC50 [µg/ml] MDA-MB-231 normal
[13] = 200 nM estradiol, read-out: IC50 [µg/ml] MCF-7 + estradiol
[14] = not pretreated with estradiol, read-out: IC50 [µg/ml] MCF-7 normal

T1 sequence (P07237 18-508, species assumed): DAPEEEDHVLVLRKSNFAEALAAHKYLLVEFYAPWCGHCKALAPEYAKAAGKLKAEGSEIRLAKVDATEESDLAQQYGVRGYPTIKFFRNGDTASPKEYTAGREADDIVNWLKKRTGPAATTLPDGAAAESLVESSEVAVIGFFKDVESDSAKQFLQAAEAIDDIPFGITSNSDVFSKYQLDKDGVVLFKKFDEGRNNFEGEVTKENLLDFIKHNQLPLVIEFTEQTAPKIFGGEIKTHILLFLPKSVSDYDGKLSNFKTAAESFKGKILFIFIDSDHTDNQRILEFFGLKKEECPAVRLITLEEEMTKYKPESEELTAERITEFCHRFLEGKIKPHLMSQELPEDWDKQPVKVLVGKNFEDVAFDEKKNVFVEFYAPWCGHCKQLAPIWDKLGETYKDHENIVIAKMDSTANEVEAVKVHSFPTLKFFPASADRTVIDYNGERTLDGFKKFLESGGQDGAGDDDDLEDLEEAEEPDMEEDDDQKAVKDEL

Structure (SMILES) | melting point [°C] | EC50 (PDI A1) [µM] | IC50 (MDA-MB-231 [9]; [11]) [µg/mL] | IC50 (MCF-7 [10]; [13]) [µg/mL] | IC50 [4] [µM] | IC50 [5] [µM] | IC50 [6] [µM] | IC50 [7] [µM] | IC50 (HT-29 [8]) [µg/mL] | IC50 (HL-60) [µg/mL] | IC50 (MDA-MB-231 [9]; [12]) [µg/mL] | Selectivity index (SI): IC50 of MCF-10A/ IC50 of MCF-7 (MCF-7 [10]) | IC50 (MCF-7 [10]; [14]) [µg/mL] | other results
N.N.[Cl][Pt][Cl] [Cisplatin, reference compound] |  |  |  |  |  |  |  |  |  |  |  |  |  | IC50 [µg/ml] HT-29 normal (HT-29 [1]): 2.82 ± 0.6 µg/mL; IC50 [µg/ml] MDA-MB-231 hypoxia (MDA-MB-231 [2]; hypoxia (<1% of oxygen)): 3.1 ± 0.9 µg/mL; IC50 [µg/ml] MDA-MB-231 normal (MDA-MB-231 [2]; normal (21% of oxygen)): 3.2 ± 0.5 µg/mL; IC50 [µg/ml] MCF-7 hypoxia (MCF-7 [3]; hypoxia (<1% of oxygen)): 1.3 ± 0.5 µg/mL; IC50 [µg/ml] MCF-7 normal (MCF-7 [3]; normal (21% of oxygen)): 1.8 ± 0.3 µg/mL
COC(=O)C1CN1S(=O)(=O)c1ccc2[nH]c(=O)ccc2c1 (centres unmarked) [Compound C-3350, Methyl 1-[(2-oxo-1H-quinolin-6-yl)sulfonyl]aziridine-2-carboxylate] | 139 to 141 | 5.5 |  |  | 136 ± 6 | 49 ± 5 | 16 ± 5 | 80 ± 8 |  |  |  |  |  | 
COC(=O)C1CN1S(=O)(=O)c1ccc2oc(=O)ccc2c1 (centres unmarked) [Compound C-3355, Methyl 1-(2-oxochromen-6-yl)sulfonylaziridine-2-carboxylate] | 42 to 44 | 7.7 |  |  | 247 ± 14 | 39 ± 1 | 20 ± 1 | 276 ± 9 |  |  |  |  |  | 

More lines, main results first:

melting point [°C] | EC50 (PDI A1) [µM] | IC50 (MDA-MB-231 [9]; [11]) [µg/mL] | IC50 (MCF-7 [10]; [13]) [µg/mL] | Structure (SMILES) | IC50 [4] [µM] | IC50 [5] [µM] | IC50 [6] [µM] | IC50 [7] [µM] | IC50 (HT-29 [8]) [µg/mL] | IC50 (HL-60) [µg/mL] | IC50 (MDA-MB-231 [9]; [12]) [µg/mL] | Selectivity index (SI): IC50 of MCF-10A/ IC50 of MCF-7 (MCF-7 [10]) | IC50 (MCF-7 [10]; [14]) [µg/mL] | other results
106 to 108 | 34 |  |  | COC(=O)C1CN1S(=O)(=O)c1ccc([N+](=O)[O-])cc1 (centres unmarked) [Compound C-3212, Methyl 1-(4-nitrophenyl)sulfonylaziridine-2-carboxylate] |  |  |  |  |  |  |  |  |  | 
139 to 141 | > 200 |  |  | NC(=O)C1CN1S(=O)(=O)c1ccc(N)cc1 (centres unmarked) [Compound C-3218, 1-(4-Aminophenyl)sulfonylaziridine-2-carboxamide] | 64 ± 5 | 200 ± 1 | 200 ± 3 | 137 ± 14 |  |  |  |  |  | 
 | 0.05 | 23.8 ± 2.3 | 29.3 ± 4.1 | CCCCCCc1ccc(S(=O)(=O)N2CC2C(=O)OC)cc1 (centres unmarked) [Compound C-3287, Methyl 1-(4-hexylphenyl)sulfonylaziridine-2-carboxylate] |  |  |  | 123 ± 17 | 31.5 ± 4.9 (≈ 96.8 µM) | 0.5 ± 0.3 (≈ 1.54 µM) | 6.4 ± 0.8 (≈ 19.7 µM) | 1.10 | 31.3 ± 0.6 (≈ 96.2 µM) | Change of antiproliferative activity towards MDA-MB-231 during simultaneous incubation with estradiol (MDA-MB-231 [9]; with estradiol versus without): slight decrease of antiproliferative activity
 | 5 | 25.7 ± 1.9 | 5.8 ± 1.3 | COC(=O)C1CN1S(=O)(=O)c1ccc(F)cc1F (centres unmarked) [Compound C-3353, Methyl 1-(2,4-difluorophenyl)sulfonylaziridine-2-carboxylate] |  |  |  |  | 35.9 ± 1.3 (≈ 129 µM) | 2 ± 0.1 (≈ 7.21 µM) | 24.2 ± 2.6 (≈ 87.3 µM) | 3.36 | 6.2 ± 1.8 (≈ 22.4 µM) | 
 |  | 26.3 ± 2.5 | 26.3 ± 4.3 | CCCCCCc1ccc(S(=O)(=O)N2CC2C(=O)NC)cc1 (centres unmarked) [Compound C-3380, 1-(4-Hexylphenyl)sulfonyl-N-methyl-aziridine-2-carboxamide] |  |  |  |  | 34.6 ± 2.2 (≈ 107 µM) | 5.3 ± 2.8 (≈ 16.3 µM) | 26.1 ± 1 (≈ 80.4 µM) | 0.75 | 25.5 ± 2.3 (≈ 78.6 µM) | 
